Laboratory results taken from patent publication US20190100534A1, “Cephem Compounds with Latent Reactive Groups” (Gladius Pharmaceuticals, Inc., priority 2017, published 2019).

Tests used:
Experiment in all cases: MIC determination, isogenic E. coli strains
Type in all cases: cell-based
E. coli J53 Alone = settings: for Mimimum Inhibitory Concentrations, J53 Alone: CAMH broth, 20 μM Apo-Transferrin, 37° C., 18 hours; for MIC: Escherichia coli, J53ALONE, 18 h, read-out: Mimimum Inhibitory Concentrations, J53 Alone
Protocol: (§1) Sterile technique was used throughout these experiments. Suspensions of organisms were removed from storage (−80° C.) and partially thawed. Partially thawed organisms (1 μL) were inoculated into 3 mL sterile LB Broth in a sterile culture tube and capped, then cultured at 37° C. with shaking for 4-5 hours until the optical density at 600 nm (OD600) was greater than 0.1 on a single beam spectrophotometer.
(§2) The concentration of organisms was adjusted to 0.08-0.1 OD600 (0.5 McFarland units) by dilution with sterile cation-adjusted Meuller-Hinton (CAMH) broth. The suspensions were used within 30 minutes of preparation.
(§3) A stock solution was made of each test compound by measuring 6.4 mg of the compound on an analytical balance and dissolving it in DMSO (1 mL) to get a transparent solution. The solutions were stored at −20° C. and thawed prior to use.
(§4) Sterile CAMH broth (200 μL) containing 20 μM Apo-Transferrin was pipetted into the first row of 8 columns of a sterile, round-bottomed, transparent, 96-well microplate using an 8-channel pipette equipped with sterile tips. One hundred μL was pipetted into the wells of the remaining 11 rows.
(§5) With an 8-channel pipette equipped with sterile tips, 100 μL of the first row solution was transferred to the second row and mixed. The process was repeated for the second to third rows and continued through row 11. One hundred μL from row 11 was removed and discarded so that all 12 rows contained 100 μL. Row 12 contained no compound and rows 1-11 contained 64, 32, 16, 8, 4, 2, 1, 0.5, 0.25, 0.125, […] of a given compound.
(§6) Inoculant suspensions (0.5 μL) were added to the 12 wells of each column. The plates were then covered and incubated at 37° C. overnight for 18 hours.
(§7) For each organism the MIC was determined by identifying the transparent well with the lowest test compound concentration.
(§8) The gene sequence for each beta-lactamase enzyme was synthesized and inserted into the pBC-SK(+) plasmid by GenScript, a commercial service. E. coli J53 was transformed with each plasmid via electroporation and resistant transformants were selected on agar plates containing 50 micrograms/mL ampicillin. The selected transformants were stored at −80 degrees C. in 20% glycerol.

[1] = tested on: Isogenic E. coli J58 strain carrying DHA-1; settings: for Mimimum Inhibitory Concentrations, DHA-1: isogenic E. coli strain, CAMH broth, 20 μM Apo-Transferrin, 37° C., 18 hours; for MIC: Escherichia coli, 18 h, read-out: Mimimum Inhibitory Concentrations, DHA-1
Protocol: as §1, §2, §3, §4, §5, §6, §7, §8

[2] = tested on: Isogenic E. coli J58 strain carrying TEM-26; settings: for Mimimum Inhibitory Concentrations, TEM-26: isogenic E. coli strain, CAMH broth, 20 μM Apo-Transferrin, 37° C., 18 hours; for MIC: Escherichia coli, 18 h, read-out: Mimimum Inhibitory Concentrations, TEM-26
Protocol: as §1, §2, §3, §4, §5, §6, §7
TEM-26 (Group 2be beta-lactamase, hydrolyzes extended spectrum cephalosporins and monobactams), [25];
as §8

[3] = tested on: Isogenic E. coli J58 strain carrying SHV-1; settings: for Mimimum Inhibitory Concentrations, SHV-1: isogenic E. coli strain, CAMH broth, 20 μM Apo-Transferrin, 37° C., 18 hours; for MIC: Escherichia coli, 18 h, read-out: Mimimum Inhibitory Concentrations, SHV-1
Protocol: as §1, §2, §3, §4, §5, §6, §7
SHV-1 (Class A, Group 2b beta-lactamase, hydrolyzes penicillins and early cephalosporins);
as §8

[4] = tested on: Isogenic E. coli J58 strain carrying CTX-M-14; settings: for Mimimum Inhibitory Concentrations, CTX-M-14: isogenic E. coli strain, CAMH broth, 20 μM Apo-Transferrin, 37° C., 18 hours; for MIC: Escherichia coli, 18 h, read-out: Mimimum Inhibitory Concentrations, CTX-M-14
Protocol: as §1, §2, §3, §4, §5, §6, §7
(§9) CTX-M-14 and CTX-M-15 (Class A, Group 2be beta-lactamases, hydrolyzes extended spectrum cephalosporins and monobactams);
as §8

[5] = tested on: Isogenic E. coli J58 strain carrying CTX-M-15; settings: for Mimimum Inhibitory Concentrations, CTX-M-15: isogenic E. coli strain, CAMH broth, 20 μM Apo-Transferrin, 37° C., 18 hours; for MIC: Escherichia coli, 18 h, read-out: Mimimum Inhibitory Concentrations, CTX-M-15
Protocol: as §1, §2, §3, §4, §5, §6, §7, §9, §8

[6] = tested on: Isogenic E. coli J58 strain carrying KPC-2; settings: for Mimimum Inhibitory Concentrations, KPC-2: isogenic E. coli strain, CAMH broth, 20 μM Apo-Transferrin, 37° C., 18 hours; for MIC: Escherichia coli, 18 h, read-out: Mimimum Inhibitory Concentrations, KPC-2
Protocol: as §1, §2, §3, §4, §5, §6, §7
(§10) KPC-2 and KPC-3 (Class A, Group 2f, carbapenemases);
as §8

[7] = tested on: Isogenic E. coli J58 strain carrying KPC-3; settings: for Mimimum Inhibitory Concentrations, KPC-3: isogenic E. coli strain, CAMH broth, 20 μM Apo-Transferrin, 37° C., 18 hours; for MIC: Escherichia coli, 18 h, read-out: Mimimum Inhibitory Concentrations, KPC-3
Protocol: as §1, §2, §3, §4, §5, §6, §7, §10, §8

[8] = tested on: Isogenic E. coli J58 strain carrying NDM-1; settings: for Mimimum Inhibitory Concentrations, NDM-1: isogenic E. coli strain, CAMH broth, 20 μM Apo-Transferrin, 37° C., 18 hours; for MIC: Escherichia coli, 18 h, read-out: Mimimum Inhibitory Concentrations, NDM-1
Protocol: as §1, §2, §3, §4, §5, §6, §7
NDM-1 (Group 3a carbapenemase, broad spectrum divalent Zn^++ metallo-Beta-Lactamase);
as §8

[9] = tested on: Isogenic E. coli J58 strain carrying VIM-2; settings: for Mimimum Inhibitory Concentrations, VIM-2: isogenic E. coli strain, CAMH broth, 20 μM Apo-Transferrin, 37° C., 18 hours; for MIC: Escherichia coli, 18 h, read-out: Mimimum Inhibitory Concentrations, VIM-2
Protocol: as §1, §2, §3, §4, §5, §6, §7
VIM-2 (Group 3a carbapenemase, metallo-beta-lactamase); and
as §8

[10] = tested on: Isogenic E. coli J58 strain carrying IMP-1; settings: for Mimimum Inhibitory Concentrations, IMP-1: isogenic E. coli strain, CAMH broth, 20 μM Apo-Transferrin, 37° C., 18 hours; for MIC: Escherichia coli, 18 h, read-out: Mimimum Inhibitory Concentrations, IMP-1
Protocol: as §1, §2, §3, §4, §5, §6, §7
IMP-1 (Group 3a carbapenemase, metallo-beta-Lactamase).
as §8

Row | Structure (SMILES) | Mimimum Inhibitory Concentrations, J53 Alone (E. coli J53 Alone; Table 4-1) | Mimimum Inhibitory Concentrations, J53 Alone (E. coli J53 Alone; Table 4-2) | Mimimum Inhibitory Concentrations, DHA-1 [1] | Mimimum Inhibitory Concentrations, TEM-26 [2] | Mimimum Inhibitory Concentrations, SHV-1 [3] | Mimimum Inhibitory Concentrations, CTX-M-14 [4] | Mimimum Inhibitory Concentrations, CTX-M-15 [5] | Mimimum Inhibitory Concentrations, KPC-2 [6] | Mimimum Inhibitory Concentrations, KPC-3 [7] | Mimimum Inhibitory Concentrations, NDM-1 [8] | Mimimum Inhibitory Concentrations, VIM-2 [9] | Mimimum Inhibitory Concentrations, IMP-1 [10] | MIC (E. coli J53 Alone) | MIC [1] | MIC [2] | MIC [3] | MIC [4] | MIC [5] | MIC [6] | MIC [7] | further results
1 | CC(C)(O/N=C(\C(=O)N[C@@H]1C(=O)N2C(C(=O)O)=C(C=Cc3ccc(C[n+]4ccc(O)c(O)c4)cc3)CS[C@H]12)c1csc(N)n1)C(=O)O (mixture of isomers) [Compound 443, 1-(4-((E/Z)-2-((6R,7R)-7-((Z)-2-(2-aminothiazol-4-yl)-2-(((2-carboxypropan-2-yl)oxy)imino)acetamido)-2-carboxy-8-oxo-5-thia-1-azabicyclo[4.2.0]oct-2-en-3-yl)vinyl)benzyl)-3,4-dihydroxypyridin-1-ium] | 0.13 microgram/mL | 0.13 microgram/mL | 1 microgram/mL | 2 microgram/mL | 1 microgram/mL | 0.25 microgram/mL | 1 microgram/mL | 8 microgram/mL | 4 microgram/mL | >64 microgram/mL | 0.25 microgram/mL | 4 microgram/mL | – | – | – | – | – | – | – | – | –
2 | CC(C)(O/N=C(\C(=O)N[C@@H]1C(=O)N2C(C(=O)O)=C(C=Cc3ccc(C[N+]4(C5CCC5)CCc5ccc(O)c(O)c5C4)cc3)CS[C@H]12)c1csc(N)n1)C(=O)O (mixture of isomers) [Compound 444, 2-(4-((E/Z)-2-((6R,7R)-7-((Z)-2-(2-aminothiazol-4-yl)-2-(((2-carboxypropan-2-yl)oxy)imino)acetamido)-2-carboxy-8-oxo-5-thia-1-azabicyclo[4.2.0]oct-2-en-3-yl)vinyl)benzyl)-2-cyclobutyl-7,8-dihydroxy-1,2,3,4-tetrahydroisoquinolin-2-ium] | 0.5 microgram/mL | 0.5 microgram/mL | 1 microgram/mL | 0.25 microgram/mL | 1 microgram/mL | 0.25 microgram/mL | 1 microgram/mL | 8 microgram/mL | 2 microgram/mL | 32 microgram/mL | 0.5 microgram/mL | 0.5 microgram/mL | – | – | – | – | – | – | – | – | MICs for an E. coli strain carrying the gene for NDM-1, in words ([8]; review of Tables 4-1 and 4-2): lower MICS compared to other compounds tested
3 | CC(C)(O/N=C(\C(=O)N[C@@H]1C(=O)N2C(C(=O)O)=C(C=Cc3ccc(C[N+]4(C)CCc5cc(O)c(O)cc5C4)cc3[N+](=O)[O-])CS[C@H]12)c1csc(N)n1)C(=O)O (mixture of isomers) [Compound 445, 2-(4-((E/Z)-2-((6R,7R)-7-((Z)-2-(2-aminothiazol-4-yl)-2-(((2-carboxypropan-2-yl)oxy)imino)acetamido)-2-carboxy-8-oxo-5-thia-1-azabicyclo[4.2.0]oct-2-en-3-yl)vinyl)-3-nitrobenzyl)-6,7-dihydroxy-2-methyl-1,2,3,4-tetrahydroisoquinolin-2-ium] | – | 1 microgram/mL | – | – | – | – | – | – | – | – | – | – | 1 µg/mL | 1 µg/mL | 1 µg/mL | 1 µg/mL | 4 µg/mL | 4 µg/mL | 64 µg/mL | 16 µg/mL | MIC [8]: > 64 µg/mL; MIC [9]: 0.25 µg/mL; MIC [10]: 1 µg/mL
4 | CC(C)(O/N=C(\C(=O)N[C@@H]1C(=O)N2C(C(=O)O)=C(/C=C/c3ccc(C[n+]4ccn(-c5ccc(O)c(O)c5)c4)cc3)CS[C@H]12)c1csc(N)n1)C(=O)O [Compound 414, 3-(4-((E)-2-((6R,7R)-7-((Z)-2-(2-aminothiazol-4-yl)-2-(((2-carboxypropan-2-yl)oxy)imino)acetamido)-2-carboxy-8-oxo-5-thia-1-azabicyclo[4.2.0]oct-2-en-3-yl)vinyl)benzyl)-1-(3,4-dihydroxyphenyl)-1H-imidazol-3-ium] | – | 0.25 microgram/mL | – | – | – | – | – | – | – | – | – | – | 0.25 µg/mL | 0.5 µg/mL | 1 µg/mL | 1 µg/mL | 2 µg/mL | 1 µg/mL | 8 µg/mL | 4 µg/mL | MIC [8]: > 64 µg/mL; MIC [9]: 1 µg/mL; MIC [10]: 8 µg/mL
